One series in a line: Pharmacokinetics in rats. The series is classed as in vivo. The note with it: rat, whole blood, Sprague Dawley rats, iv 2 mg/kg or oral 10 mg/kg; for half-life: read-out: Half-life in blood (t1/2); for clearance: read-out: Observed clearance; for Vd: read-out: Volume of distribution (Vz). As for the experimental part: Compounds were administered to Sprague Dawley rats intravenously (2 mg/kg) or orally (10 mg/kg) by gavage. Whole blood diluted with water was prepared from these dosed animals over a time course up to 24 hours post dose to allow blood concentrations of drug to be measured by UPLC-MS/MS.

A further series deals with human Z A1AT (Homo sapiens, UniProt P01009, E366K). Briefly: A1AT cell secretion assay using HEK-Z cells (ELISA). Also on record: expressed in transfected cells; host or cells: HEK-Z (HEK-EBNA cells containing the Z A1AT plasmid). The series is classed as cell-based. Particulars: HEK-Z cells, 10, 33, 100 and 333 nM, 48 h, cell supernatant. How it is done:
HEK-Z cells, a human embryonic kidney cell line stably transfected with the human Z A1AT gene, were plated into 96 well plates (3.0×10^5 cells/ml with 200 μl of media/well) overnight at 37° C. in a humidified atmosphere containing 5% CO2. Following incubation cells were washed with 200 μl serum-free media three times and media was replaced with treatments in quadruplicate using serum-free media containing either vehicle, 10 μM suberanilohydroxamic acid (SAHA), N,N-dimethyl-4-((6-oxopyrimidin-1(6H)-yl)methyl)benzamide (at concentrations of 10, 33, 100 and 333 nM), N,N-(bis-methyl-d3)-4-((6-oxopyrimidin-1(6H)-yl)methyl)benzamide (at concentrations of 10, 33, 100 and 333 nM) or N-methyl-4-((6-oxopyrimidin-1(6H)-yl)methyl)benzamide (at concentrations of 10, 33, 100 and 333 nM) for 48 h in a 37° C. incubator in a final volume of 200 μl. At the end of the incubation step the supernatants were removed from the wells, centrifuged at 1000×g at 4° C. for 10 min and were assayed for human A1AT levels by ELISA (Human Serpin A1/α1-antitrypsin duo set ELISA, R& D Systems, DY1268) per manufacturer's instructions.
Briefly, a 96 well plate was coated with human A1AT capture antibody overnight at room temperature (1:180 dilution from stock, 100 μl final volume/well). The capture antibody was then removed and wells washed three times with 300 μl wash buffer (0.05% Tween 20 in PBS) and then 200 μl reagent diluent ([…]) was incubated in each well for 1 h at room temperature. […] After which, 50 μl stop solution (2M H2SO4) was added and optical density (OD) of each well was read at 450 nm with 570 nm blank subtracted from each well using a microplate reader. A 4 parameter logistic curve was constructed using GraphPad Prism 7 and A1AT concentrations were determined in each sample by interpolation from a standard curve and multiplying by the appropriate dilution factor.
(§1) The amount of A1AT secreted from transfected HEK-EBNA cells into the media was measured by ELISA. […]

A further series deals with T1, human M A1AT (Homo sapiens, UniProt P01009).
T1 construct: expressed in transfected cells; host or cells: HEK-M (HEK-EBNA cells containing the M A1AT plasmid)
The series can be described thus: A1AT cell secretion assay using HEK-M cells (ELISA). In kind it is cell-based. Particulars: 10 μM, 48 h. How it is done:
HEK-M cells, a human embryonic kidney cell line stably transfected with the human M A1AT gene, were plated into 96 well plates (3.0×10^5 cells/ml with 200 μl of media/well) overnight at 37° C. in a humidified atmosphere containing 5% CO2. Following incubation cells were washed with 200 μl serum-free media three times and media was replaced with serum-free media containing either vehicle, 10 μM suberanilohydroxamic acid (SAHA) or a compound of the invention (at 10 μM) in replicates of six for 48 h in a 37° C. incubator in a final volume of 200 μl. […]
(§2) Briefly, a 96 well plate was coated with human A1AT capture antibody overnight at room temperature (1:180 dilution from stock, 100 μl final volume/well). […] After which, 50 μl stop solution (2M H2SO4) was added and optical density (OD) of each well was read at 450 nm with 570 nm blank subtracted from each well using a microplate reader. A 4 parameter logistic curve was constructed using GraphPad Prism 7 and A1AT concentrations were determined in each sample by interpolation from a standard curve and multiplying by the appropriate dilution factor.
as §1

For the next series, the target named is T2, human Siiyama A1AT (Homo sapiens, UniProt P01009, S77F).
T2 construct: expressed in transfected cells; host or cells: HEK-Siiyama (HEK-EBNA cells containing the Siiyama A1AT plasmid)
The series can be described thus: A1AT cell secretion assay using HEK-Siiyama cells (ELISA). The series is classed as cell-based. Particulars: 10 μM, 48 h, positive control. How it is done: HEK-Siiyama cells, a human embryonic kidney cell line stably transfected with the human Siiyama A1AT gene, were plated into 96 well plates (3.0×10^5 cells/ml with 200 μl of media/well) overnight at 37° C. in a humidified atmosphere containing 5% CO2. Following incubation cells were washed with 200 μl serum-free media three times and media was replaced with serum-free media containing either vehicle, 10 μM suberanilohydroxamic acid (SAHA) or a compound of the invention (at 1 or 10 μM) in replicates of eight for 48 h in a 37° C. incubator in a final volume of 200 μl. […]
as §2
The amount of human A1AT secreted from transfected HEK-EBNA cells into the media was measured by ELISA. […]

Sequence of human Z A1AT (P01009 25-418 E366K): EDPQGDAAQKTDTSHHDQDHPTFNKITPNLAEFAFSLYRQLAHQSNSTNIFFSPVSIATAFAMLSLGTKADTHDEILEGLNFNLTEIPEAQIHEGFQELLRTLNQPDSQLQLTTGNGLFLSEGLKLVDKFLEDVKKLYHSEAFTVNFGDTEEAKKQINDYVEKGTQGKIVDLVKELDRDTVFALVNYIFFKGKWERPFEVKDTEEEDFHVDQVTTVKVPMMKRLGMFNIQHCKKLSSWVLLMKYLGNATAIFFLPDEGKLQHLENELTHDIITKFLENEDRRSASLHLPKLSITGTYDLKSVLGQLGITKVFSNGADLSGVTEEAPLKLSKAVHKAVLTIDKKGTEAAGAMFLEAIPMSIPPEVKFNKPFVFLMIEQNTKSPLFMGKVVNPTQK
T1 sequence (P01009 25-418): as the sequence (P01009 25-418 E366K) above, with K342E counted along it
T2 sequence (P01009 25-418 S77F): as the sequence (P01009 25-418 E366K) above, with S53F, K342E counted along it

With `[2H]C([2H])([2H])N(C(=O)c1ccc(Cn2cnccc2=O)cc1)C([2H])([2H])[2H]` [N,N-(bis-methyl-d3)-4-((6-oxopyrimidin-1(6H)-yl)methyl)benzamide], in “Pharmacokinetics in rats”, the half-life came to 52 min, the clearance was 10.6 mL/min/kg and the Vd worked out at 0.72 L/kg. For the same molecule, at human Z A1AT, the “secretion of Z A1AT as measured by ELISA” value is on record as “stimulates secretion of Z A1AT in a dose dependent manner”.

Take `O=C(CCCCCCC(=O)Nc1ccccc1)NO` [SAHA, suberanilohydroxamic acid, reference compound]: at human M A1AT, the “secretion of M A1AT as measured by ELISA” value is “stimulates an increase in M A1AT secretion”. On human Siiyama A1AT, the “secretion of Siiyama A1AT as measured by ELISA” value is “stimulates an increase in Siiyama A1AT secretion”.

As to `CNC(=O)c1ccc(Cn2cnccc2=O)cc1` [N-methyl-4-((6-oxopyrimidin-1(6H)-yl)methyl)benzamide], in “Pharmacokinetics in rats”, the half-life stood at 63 min, the clearance amounted to 10.6 mL/min/kg and the Vd came to 1 L/kg. Also, the “secretion of Z A1AT as measured by ELISA” value at human Z A1AT is on record as “stimulates secretion of Z A1AT in a dose dependent manner”.

The values above are taken from patent publication US12221422B2, “Compounds and their use for the treatment of alpha1-antitrypsin deficiency” (CENTESSA PHARMACEUTICALS (UK) LIMITED, priority 2018, dated 2025).
